In patent publication US20110144160A1, “Antagonists of Prostaglandin D2 Receptors” (Amira Pharmaceuticals, Inc., priority 2008, published 2011):

Tests used:
human DP2 receptor = biological target: T1, human DP2 receptor (Homo sapiens, UniProt Q9Y5Y4); experiment: DP2/CRTH2 binding assay ([3H]PGD2 radioligand); settings: membranes of HEK293 cells expressing recombinant human DP2, 1 nM [3H]PGD2; read-out: hDP2
T1 construct: expressed in transfected cells
T1 sequence (Q9Y5Y4 1-395): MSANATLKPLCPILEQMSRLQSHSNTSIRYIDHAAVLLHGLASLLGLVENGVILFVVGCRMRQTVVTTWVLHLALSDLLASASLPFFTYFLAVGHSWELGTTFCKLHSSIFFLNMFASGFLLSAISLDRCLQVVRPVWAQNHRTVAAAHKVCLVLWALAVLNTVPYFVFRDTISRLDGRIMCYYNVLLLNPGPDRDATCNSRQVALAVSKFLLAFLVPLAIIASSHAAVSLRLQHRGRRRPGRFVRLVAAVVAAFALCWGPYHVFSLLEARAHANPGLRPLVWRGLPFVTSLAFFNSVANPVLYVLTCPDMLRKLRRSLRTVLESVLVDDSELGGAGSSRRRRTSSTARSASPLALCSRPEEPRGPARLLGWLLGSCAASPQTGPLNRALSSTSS
Summary of the method: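 HEK293 membranes with stable recombinant human DP2, incubated with 1 nM [3H]PGD2 and compound 60 min at room temperature in pH 7.4 HEPES/MnCl2/EDTA buffer, with or without 0.2% human serum albumin.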

human DP1 receptor = biological target: T2, human DP1 receptor (Homo sapiens, UniProt Q13258); experiment: DP1 binding assay ([3H]BWA868C radioligand); settings: human platelet membranes, 2 nM [3H]BWA868C; read-out: hDP1
T2 construct: tissue Biological Specialty Corporation; host or cells: human platelets, membrane preparation
T2 sequence (Q13258 1-359): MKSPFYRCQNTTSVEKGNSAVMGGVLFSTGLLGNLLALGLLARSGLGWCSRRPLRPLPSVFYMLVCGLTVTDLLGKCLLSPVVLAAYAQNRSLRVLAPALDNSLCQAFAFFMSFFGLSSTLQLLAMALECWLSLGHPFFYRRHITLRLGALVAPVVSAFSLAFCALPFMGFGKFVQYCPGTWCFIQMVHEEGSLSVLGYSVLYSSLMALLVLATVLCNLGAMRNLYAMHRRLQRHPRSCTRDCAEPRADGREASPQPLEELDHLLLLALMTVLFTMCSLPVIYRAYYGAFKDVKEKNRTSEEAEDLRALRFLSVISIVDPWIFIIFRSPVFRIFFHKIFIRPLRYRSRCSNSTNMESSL
Procedure: The ability of a compound to bind to the human DP1 receptor was evaluated via a radioligand membrane binding assay using the DP1 selective synthetic ligand [^3H]BWA868C. Packed human platelets (Biological Specialty Corporation), were resuspended in 6 volumes of Hepes/HBSS buffer (10 mM Hepes, 1 mM DTT in Hanks Balanced Salt Solution (HBSS), lysed and centrifuged at 75,000×g to pellet the membranes. Membranes were resuspended in Hepes/HBSS buffer to approximately 12 mg protein/ml. Membranes (20 μg protein/well) are incubated in 96-well plates with 2 nM [^3H]BWA868C and test compound in Assay Buffer (50 mM Hepes, 10 mM MnCl2, 1 mM EDTA, plus or minus 0.2% human serum albumin, pH 7.4) for 60 minutes at room temperature. The reactions are terminated by rapid filtration through Whatman GF/C glass fibre filter plates. The filter plates were pre-soaked in 0.33% polethylenimine for 30 minutes at room temperature then washed in Wash Buffer (50 mM Hepes, 0.5 M NaCl pH 7.4) prior to harvesting. After harvesting, the filter plates are washed 3 times with 1 ml cold Wash Buffer then dried. Scintillant is then added to the plates and the radioactivity retained on the filters is determined on a Packard TopCount (Perkin Elmer). Specific binding is determined as total radioactive binding minus non-specific binding in the presence of 10 μM BW A868C. IC50s were determined using GraphPad prism analysis of drug titration curves.

Row | IC50 (human DP2 receptor) [nM] | IC50 (human DP1 receptor) [nM] | SMILES
1 | < 300 | > 1000 | CC(C)SCc1cc(NC(=O)C(C)(C)C)ccc1Oc1cc(Cl)cc(CC(=O)O)c1 [Compound 30, {3-Chloro-5-[4-(2,2-dimethyl-propionylamino)-2-isopropylsulfanylmethyl-phenoxy]-phenyl}-acetic acid]
2 | < 300 | > 1000 | COc1ccc(CC(=O)O)cc1Oc1ccc(NC(=O)C(C)(C)C)cc1CSC(C)(C)C [Compound 7, {3-[2-tert-Butylsulfanylmethyl-4-(2,2-dimethyl-propionylamino)-phenoxy]-4-methoxy-phenyl}-acetic acid]

The next lines start with the molecule.

Row | SMILES | IC50 (human DP2 receptor) [nM] | IC50 (human DP1 receptor) [nM]
3 | COc1ccc(CC(=O)O[C@@H]2O[C@@H](C(=O)O)[C@H](O)[C@@H](O)[C@@H]2O)cc1Oc1ccc(NC(=O)C(C)(C)C)cc1CSC(C)(C)C [Compound 77, (2R,3R,4R,5S,6S)-6-(2-{3-[2-tert-Butylsulfanylmethyl-4-(2,2-dimethyl-propionylamino)-phenoxy]-4-methoxy-phenyl}-acetoxy)-3,4,5-trihydroxy-tetrahydro-pyran-2-carboxylic acid] | < 300 | < 300
4 | COc1ccc(CC(=O)O)cc1Oc1ccc(NC(=O)c2ccc(Cl)cc2)cc1CSCc1ccccc1 [Compound 18, {3-[2-Benzylsulfanylmethyl-4-(4-chloro-benzoylamino)-phenoxy]-4-methoxy-phenyl}-acetic acid] | < 300 | < 300
5 | COc1ccc(CC(=O)O)cc1Oc1ccc(NC(=O)c2ccccc2F)cc1CSC(C)(C)C [Compound 64, {3-[2-tert-Butylsulfanylmethyl-4-(2-fluoro-benzoylamino)-phenoxy]-4-methoxy-phenyl}-acetic acid] | < 300 | < 300
